Results taken from patent US7119121B2, “3,3-diphenylpropylamines useful in therapy” (Pfizer Inc., priority 2003, dated 2006).

Experiments:
[1] = target: T1, muscarinic receptor subtype M1 (Homo sapiens, UniProt P11229); test: In vitro muscarinic receptor binding assay ([3H]NMS competition, SPA); conditions: cloned human receptors in CHO cell membranes, [3H]N-methylscopolamine, average of four determinations
T1 construct: purchased Receptor Biology division of Perkin Elmer Life Sciences (Beltsville, Md.)
T1 sequence (P11229 1-460): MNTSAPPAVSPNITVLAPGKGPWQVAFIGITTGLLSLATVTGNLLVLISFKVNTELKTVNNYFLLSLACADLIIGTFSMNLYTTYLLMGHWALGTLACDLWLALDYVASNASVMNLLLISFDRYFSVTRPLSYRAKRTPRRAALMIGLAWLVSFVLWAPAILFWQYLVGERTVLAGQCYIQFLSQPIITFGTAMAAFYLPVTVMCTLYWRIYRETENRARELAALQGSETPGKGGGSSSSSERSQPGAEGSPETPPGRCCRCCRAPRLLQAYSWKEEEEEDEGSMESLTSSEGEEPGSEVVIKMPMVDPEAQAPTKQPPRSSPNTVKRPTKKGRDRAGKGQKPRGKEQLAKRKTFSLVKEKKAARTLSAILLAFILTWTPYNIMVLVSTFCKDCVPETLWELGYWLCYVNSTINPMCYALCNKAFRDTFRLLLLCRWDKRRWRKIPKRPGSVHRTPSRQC
Method: (§1) Affinities of test compounds for muscarinic receptor subtypes M1–M4 were determined. Competition radioligand binding experiments employed 11 drug concentrations run in duplicate. [^3H]N-methylscopolamine (NMS) was used as an antagonist radioligand, at the concentration equal to its equilibrium dissociation constant (Kd) for each receptor subtype. […] Total binding was determined with phosphate buffered saline (PBS). Cloned human receptors permanently expressed in CHO cells were the source of all binding sites. Membranes were purchased from Receptor Biology division of Perkin Elmer Life Sciences (Beltsville, Md.). The assays were run in scintillation proximity assay (SPA) format. Binding mixtures were made in flexible, 96-well, Wallac Micro-Beta plates by the addition of 11 μl of drug dilution, 11 μl of radioligand, and 178 μl of membrane/SPA bead suspension (100 mg of WGA-coated SPA beads, incubated with 5–15 μg protein/plate in 10 ml PBS for 30 min at room temperature, followed by low-speed centrifugation and resuspension in 2 ml PBS). After sealing and incubation at room temperature for 1 hour the plates were counted in a Wallac Micro-Beta scintillation counter. IC50 values were estimated by fitting the data to a one-site competition model: Y=T/(1+10^log(x)−log(IC50)), where Y is the specific CPM's bound at concentration X, and T is the specific CPM's bound in the absence of competitor. Inhibition constants (Ki) were calculated using the Cheng-Prushoff equation (Cheng, Y; Prushoff, W H, Biochem Pharmacol 22: 3099–3108, 1973). Curve fitting and Ki calculations were carried out using GraphPad Prism, version 3.0 (San Diego, Calif.).
(§2) Results are the average of four separate determinations. In vitro Binding

[2] = target: T2, muscarinic receptor subtype M3 (Homo sapiens, UniProt P20309); test: as above; conditions: cloned human receptors in CHO cell membranes, [3H]N-methylscopolamine, average of four determinations
T2 construct: purchased Receptor Biology division of Perkin Elmer Life Sciences (Beltsville, Md.)
Method: as §1, §2

[3] = target: T3, muscarinic receptor subtype M2 (Homo sapiens, UniProt P08172); test: as above; conditions: cloned human receptors in CHO cell membranes, [3H]N-methylscopolamine, average of four determinations
T3 construct: purchased Receptor Biology division of Perkin Elmer Life Sciences (Beltsville, Md.)
T3 sequence (P08172 1-466): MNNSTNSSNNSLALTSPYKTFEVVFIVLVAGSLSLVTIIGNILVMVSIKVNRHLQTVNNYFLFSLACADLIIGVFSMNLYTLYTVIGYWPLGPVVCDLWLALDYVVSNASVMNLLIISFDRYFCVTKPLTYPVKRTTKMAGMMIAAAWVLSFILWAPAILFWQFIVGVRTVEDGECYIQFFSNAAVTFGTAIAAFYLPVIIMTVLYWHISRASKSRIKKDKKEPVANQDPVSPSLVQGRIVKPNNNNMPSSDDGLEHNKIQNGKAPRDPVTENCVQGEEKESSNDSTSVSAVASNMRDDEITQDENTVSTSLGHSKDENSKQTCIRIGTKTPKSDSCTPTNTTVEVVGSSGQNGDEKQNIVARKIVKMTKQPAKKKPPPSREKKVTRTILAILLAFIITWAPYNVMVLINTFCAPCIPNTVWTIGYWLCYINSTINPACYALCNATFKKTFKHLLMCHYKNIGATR
Method: as §1, §2

[4] = target: T4, muscarinic receptor subtype M4 (Homo sapiens, UniProt P08173); test: as above; conditions: cloned human receptors in CHO cell membranes, [3H]N-methylscopolamine, average of four determinations
T4 construct: purchased Receptor Biology division of Perkin Elmer Life Sciences (Beltsville, Md.)
T4 sequence (P08173 1-479): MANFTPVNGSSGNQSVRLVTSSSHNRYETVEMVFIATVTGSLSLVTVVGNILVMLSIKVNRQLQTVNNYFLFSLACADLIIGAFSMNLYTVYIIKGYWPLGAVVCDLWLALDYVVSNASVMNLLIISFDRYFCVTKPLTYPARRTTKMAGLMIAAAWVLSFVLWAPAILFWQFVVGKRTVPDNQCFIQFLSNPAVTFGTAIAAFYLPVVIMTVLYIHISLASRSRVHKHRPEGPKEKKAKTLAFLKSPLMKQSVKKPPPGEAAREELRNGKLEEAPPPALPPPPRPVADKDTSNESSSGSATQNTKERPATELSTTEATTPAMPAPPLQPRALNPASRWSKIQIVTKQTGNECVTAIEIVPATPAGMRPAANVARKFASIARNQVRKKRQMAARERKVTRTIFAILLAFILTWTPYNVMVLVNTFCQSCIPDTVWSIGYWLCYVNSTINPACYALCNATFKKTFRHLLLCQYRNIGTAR
Method: as §1, §2

P450 CYP2D6 enzyme = P450 CYP2D6 enzyme (Homo sapiens, UniProt P10635); test: Protection from CYP2D6 metabolism (microsome incubation, HPLC); type: in vitro ADME; conditions: approx. 10 μM [14C]-labeled compound, microsomes with CYP2D6 (20 pmol), 1 mM β-NADPH, pH 7.4, 37° C., 20 min
Method: [^14C]-labeled N,N-diisopropyl-3-(2-hydroxy-5-trifluoromethylphenyl)-3-phenylpropanamine is synthesized, following the general procedure of examples 1–9. Approximately 10 μM of the compound is incubated with microsomes containing P450 CYP2D6 enzyme (20 pmol) in 100 mM potassium phosphate buffer (pH 7.4) and 1 mM β-NADPH at 37° C. in a final volume of 250 μl for 20 min.
The incubations are analyzed for the parent drug and its metabolites by HPLC using standard procedures. The amount of each metabolite is calculated from the resulting radiochromatogram. The retention times of formed metabolites are compared with the retention times of synthesized reference standards, and the identity of the formed metabolites is further confirmed by electrospray ionization mass spectrometry.

Sequence of P450 CYP2D6 enzyme (P10635 whole entry): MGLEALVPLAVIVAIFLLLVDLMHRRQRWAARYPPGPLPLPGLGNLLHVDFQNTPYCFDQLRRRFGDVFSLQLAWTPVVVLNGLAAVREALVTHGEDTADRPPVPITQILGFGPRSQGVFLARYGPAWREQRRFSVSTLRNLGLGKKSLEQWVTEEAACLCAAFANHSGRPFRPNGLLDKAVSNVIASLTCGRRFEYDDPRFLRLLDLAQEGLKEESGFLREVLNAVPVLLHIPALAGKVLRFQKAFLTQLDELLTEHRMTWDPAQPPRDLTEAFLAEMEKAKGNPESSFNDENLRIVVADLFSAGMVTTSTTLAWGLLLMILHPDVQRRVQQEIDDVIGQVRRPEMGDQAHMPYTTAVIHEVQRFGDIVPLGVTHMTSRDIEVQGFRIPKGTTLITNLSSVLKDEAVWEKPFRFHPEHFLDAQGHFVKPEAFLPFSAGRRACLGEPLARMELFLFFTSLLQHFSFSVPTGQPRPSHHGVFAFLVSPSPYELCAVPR
T2 sequence (P20309 whole entry): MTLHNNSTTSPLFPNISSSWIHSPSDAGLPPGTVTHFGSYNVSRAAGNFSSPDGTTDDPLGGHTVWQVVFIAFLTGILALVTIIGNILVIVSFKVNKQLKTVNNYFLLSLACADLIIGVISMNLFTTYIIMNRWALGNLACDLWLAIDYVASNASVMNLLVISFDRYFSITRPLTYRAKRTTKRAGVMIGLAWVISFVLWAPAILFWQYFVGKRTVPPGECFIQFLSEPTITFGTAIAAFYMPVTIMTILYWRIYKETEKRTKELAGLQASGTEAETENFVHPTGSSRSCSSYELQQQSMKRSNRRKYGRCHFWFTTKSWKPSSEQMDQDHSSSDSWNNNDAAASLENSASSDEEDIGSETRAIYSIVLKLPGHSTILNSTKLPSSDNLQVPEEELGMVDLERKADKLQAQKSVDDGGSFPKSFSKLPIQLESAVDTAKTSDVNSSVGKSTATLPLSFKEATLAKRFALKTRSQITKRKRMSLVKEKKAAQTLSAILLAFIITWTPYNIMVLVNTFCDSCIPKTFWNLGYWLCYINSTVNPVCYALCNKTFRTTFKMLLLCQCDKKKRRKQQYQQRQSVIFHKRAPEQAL

Row | SMILES | Ki [1] [nM] | Ki [2] [nM] | Ki [3] [nM] | Ki [4] [nM] | oxidation/hydroxylation by P450 CYP2D6 enzyme (P450 CYP2D6 enzyme)
1 | CC(C)N(CCC(c1ccccc1)c1cc(C(F)(F)F)ccc1O)C(C)C (racemic) [N,N-Diisopropyl-3-(2-hydroxy-5-trifluoro-methylphenyl)-3-phenylpropanamine] | 3.9 | 16 | 8.4 | 6 | not readily hydroxylated at the 5-trifluoromethyl substituent
2 | Cc1ccc(O)c([C@H](CCN(C(C)C)C(C)C)c2ccccc2)c1 [tolterodine, 2-[(1R)-3-(diisopropylamino)-1-phenylpropyl)-4-methylphenol, reference compound] | 0.79 | – | – | 0.64 | –
